Test results from patent US6355677B1, “Adrenoleukodystrophy treatments and drug screening” (The Johns Hopkins University, priority 1998, dated 2002).
Entries after “also recorded” stand apart in the source; their conditions may differ.

How the values were obtained:
[1] = test system: ALDP; assay: ALDP stabilization, immunofluorescence with anti-ALDP antibody; format: cell-based, human; settings: X-ALD fibroblasts with destabilizing missense mutations (A626T, R660W), 5 mM for up to 10 days
[2] = test system: ALDP; assay: Semi-quantitative RT-PCR, human primary fibroblasts; format: cell-based; settings: normal fibroblasts, 5 mM, 2 days
Experimental: (§1) Semi-quantitative RT-PCR was done on the mRNA isolated from these cells (FIG. 1). […] In addition, the expression of acyl-CoA oxidase (AOX), the rate-limiting enzyme in VLCFA β-oxidation, was not affected. Although previous studies have reported that ALDR mRNA was not detectable in fibroblasts by either northern or RT-PCR analyses, those RT-PCR studies used about 66 ng of CDNA; we used about 250 ng of cDNA.
(§2) Total RNA from tissue culture cells (10^6-10^7 cells/sample) was isolated using TRizol Reagent™ (Life Technologies), treated with DNase I (100-200 units in 40 mM HC, 10mM NaC, 6 mM MgCl2, pH 7.3), incubated at 37° C. for 30 min, extracted with pheno/chloroform, and precipitated with isopropanol. cDNA was generated using MMLV reverse transcriptase (RT) (Life Technologies). PCR was done in the linear range of amplification (determined for each primerpair-cDNA combination). For each cDNA sample, a ‘cocktail’ was prepared, containing PCR buffer (Promega), 200 µM of each DNTP, 1.5 mM MgCl2, 250 ng cDNA, 0.25 U of Taq polymerase (Promega) and […]. The ‘cocktail’ was divided into separate tubes containing cDNA specific primers.
(§3) The PCR primers used are listed below. In the parentheses, h indicates human and m, mouse; this is followed by the gene name, product size and annealing temperature. For primer sequences, F is forward and R is reverse. (hALD, 249, 64° C.) F: 5′-[…]-3′, R: 5′-[…]-3′; (mALD, 526, 59° C.) F: 5′-[…]-3′, R: 5′-[…]-3′; (hPMP70, 405, 60° C.) F: 5′-[…]-3′, R: 5′-[…]-3′; (mPMP70, 405, 60° C.) F: 5′-TTr[…]-3′, R: 5′-[…]-3′; (hALDR, 312, 56° C.) F: 5-[…]-3′, R: 5′-[…]-3′; (mALDR, 711, 57° C.) F: 5′-[…]-3′, R: 5′-[…]-3′; (hPMP69, 319, 60° C.) F: 5′-[…]-3′, R: 5-[…]-3′; (hAOX, 405, 60° C.) F: 5′-[…]-3′, R: 5′[…]-3′; (mAOX, 247, 60° C.) F: 5′-[…]r[…]-3′, R: 5′-[…]-3′; (hPPARα, 347, 60° C.) F: 5-[…]r[…]rCC-3′, R: 5′-[…]-3′; (mFPPARa, 268, 60° C.) F: 5′-GATTr[…]-TGAGG-3, R: 5′-[…]-3′; (hPex11α 658, 55° C.) F: 5-[…]-3′, R: 5′-[…]-3′; (mpex11α, 720, 55° C.) F: 5′-[…]r[…]-3′, R: 5′-[…]-3′; (β-Actin, 460, 62° C.) F:5′-[…]-3′, R: 5′-[…]-3, (glyceraldehyde 3-phosphate dehydrogenase (GAPDH), 528, 62° C.) F: 5′-[…]-3, R: 5′-[…]-3′. β-Actin and GAPDH primers were used for both human and mouse analyses.

[3] = test system: ALDR mRNA; assay: as above; format: cell-based; settings: normal and X-ALD fibroblasts, 5 mM, 2 days, relative to β-actin
Experimental: as §1, §2, §3

[4] = test system: PMP69; assay: as above; format: cell-based; settings: X-ALD or normal fibroblasts, 5 mM, 2 days
Experimental: as §1, §2, §3

[5] = test system: PMP70; assay: as above; format: cell-based; settings: X-ALD or normal fibroblasts, 5 mM, 2 days
Experimental: as §1, §2, §3

[6] = test system: acyl-CoA oxidase (AOX); assay: as above; format: cell-based; settings: 5 mM
Experimental: as §1, §2, §3

[7] = test system: PPARα; assay: as above; format: cell-based; settings: human X-ALD fibroblasts, 5 mM, up to 10 days
Experimental: as §2
(§4) The PCR primers used are listed below. In the parentheses, h indicates human and m, mouse; this is followed by the gene name, product size and annealing temperature. For primer sequences, F is forward and R is reverse. […]

[8] = test system: Pex11α; assay: as above; format: cell-based; settings: 5 mM, 2 days
Experimental: as §2, §4

[9] = test system: PPARα; assay: Semi-quantitative RT-PCR, mouse primary fibroblasts; format: cell-based; settings: mouse X-ALD fibroblasts, 5 mM, 2 days
Experimental: as §2, §4

[10] = test system: Pex11α; assay: as above; format: cell-based; settings: normal or X-ALD mouse fibroblasts, 10 day exposure to 5 mM; data not shown
Experimental: as §2, §4

[11] = test system: ΔF508-CFTR; settings: nasal epithelia cells, homozygous or heterozygous ΔF508-CFTR; cited from earlier work

In the case of O=C(O)CCCc1ccccc1 [4-PBA, 4-Phenyl butyrate], the “Detectable ALDP after treatment” value [1] is reported as “did not result in detectable levels of ALDP”, the ALDP expression level [2] is reported as “little, if any, effect” and the “ALDR mRNA level” value [3] is reported as “substantially increased; also recorded: substantial increase”. The PMP69 expression level [4] was “little, if any, effect”, the PMP70 expression level [5] was “little, if any, effect” and the AOX expression ([6]; 2 days) was “unchanged; also recorded: not affected”. The AOX expression ([6]; 10 days) was “remained unchanged”, the PPARα expression [7] was “unchanged” and the Pex11α expression [8] was “substantially increased; also recorded: substantial increase”. For the same compound, the PPARα expression [9] was “increased”, the Pex11α transcripts [10] was “undetectable” and the “Effect on ΔF508-CFTR” value [11] was “rescue of ΔF508-CFTR from premature degradation”.
